Molecules are shown by their SMILES.

The subject of this test is AKT protein phosphorylated on serine 473 (P-AKT-S473). The test is described as follows: Study of pAKT expression in PC3 human prostate carcinoma cells measured by the MSD Multi-spot Biomarker Detection technique (Test B). The test is classed as cell-based. Conditions: PC-3, inhibition of AKT phosphorylation (P-AKT-S473), MSD sandwich immunoassay, 1 to 2 h incubation, absolute IC50, mean of 2 experiments. The procedure: The inhibitory activity of the molecules on AKT phosphorylation is measured either by western blotting using the technique described below, or by the MSD Multi-spot Biomarker detection technique from Meso Scale Discovery also described below.
Study of pAKT Expression in PC3 Human Prostate Carcinoma Cells Measured by the MSD Multi-Spot Biomarker Detection Technique from Meso Scale Discovery (Test B):
The primary antibody specific for P-AKT-S473 (Kit #K151CAD) is coated on to an electrode in each well of the 96-well plates of the MSD, kit: after the addition of a protein lysate to each well, the signal is visualised by adding a secondary detection antibody labelled with an electrochemoluminescent compound. The procedure followed is that described in the kit.
On day 2, the cells are incubated in the presence or absence of the test products for 1 to 2 h at 37° C. in the presence of 5% of CO2. The molecules, diluted in dimethyl sulphoxide (DMSO Sigma #D2650), are added from a 20-times concentrated stock solution, the final percentage of DMSO being 0.1%. The molecules are tested either at a single concentration of less than or equal to 10 μM, or at increasing concentrations in a range that can extend from less than 1 nM to 10 μM.
After this incubation, the cells are lysed for the preparation of the proteins. […] At this stage, the plates containing the lysates can be stored at −20° C. or at −80° C.
The wells of the 96-well plates of the MSD kit are saturated for 1 h at ambient temperature with the blocking solution of the MSD kit. Four washes are carried out with 150 μl of Tris Wash Buffer of the MSD kit. The lysates previously prepared are transferred into the 96-well multi-spot plates of the MSD kit and incubated for 1 h at ambient temperature, with shaking. Four washes are carried out with 150 μl of Tris Wash Buffer of the MSD kit. 25 μl of the MSD sulfo-tag detection antibody solution are added to the wells and incubated for 1 h at ambient temperature, with shaking. Four washes are carried out with 150 μl of Tris Wash Buffer of the MSD kit. 150 μl of Read Buffer of the MSD kit are added to the wells and the plates are read immediately on the S12400 instrument from Meso Scale Discovery.
The instrument measures a signal for each well. Wells without cells and containing the lysis buffer serve to determine the background noise that will be subtracted from all the measurements (min). The wells containing cells in the absence of product and in the presence of 0.1% DMSO are considered to be the 100% signal (max). The percentage inhibition is calculated for each concentration of test product according to the following formula: (1-((test-min)(max-min)))×100.
2 independent experiments make it possible to calculate the mean of the IC50 values.
As for `CC1Cc2ccccc2N1C(=O)Cc1nc(N2CCOCC2)cc(=O)[nH]1` (centres unmarked) [Example 96, 2-[2-(2-methyl-2,3-dihydro-1H-indol-1-yl)-2-oxoethyl]-6-(morpholin-4-yl)pyrimidin-4(3H)-one], the half-maximal inhibitory concentration (IC50) (commonly the midpoint of a concentration-inhibition curve) came to 6 nM.
With `Cn1c(CC(=O)Nc2ccc(F)c(C(F)F)c2)nc(N2CCOCC2)cc1=O` [Example 97, N-[3-(difluoromethyl)-4-fluorophenyl]-2-[1-methyl-4-(morpholin-4-yl)-6-oxo-1,6-dihydropyrimidin-2-yl]acetamide] the figure was 260 nM; with `Cn1c(CC(=O)Nc2cc(F)c(F)c(F)c2)nc(N2CCOCC2)cc1=O` [Example 98, 2-(1-methyl-4-morpholin-4-yl-6-oxo-1,6-dihydropyrimidin-2-yl)-N-(3,4,5-trifluorophenyl)acetamide], 219 nM.
With `Cn1ccc2c(NC(=O)Cc3nc(N4CCOCC4)cc(=O)[nH]3)cccc21` [Example 99, N-(1-methyl-1H-indol-4-yl)-2-[4-(morpholin-4-yl)-6-oxo-1,6-dihydropyrimidin-2-yl]acetamide] the figure was 666 nM.
The figure for `Cc1cccc2c1CCN2C(=O)Cc1nc(N2CCOCC2)cc(=O)[nH]1` [Example 100, 2-[2-(4-methyl-2,3-dihydro-1H-indol-1-yl)-2-oxoethyl]-6-(morpholin-4-yl)pyrimidin-4(3H)-one] is 3 nM; for `CC1CN(C(=O)Cc2nc(N3CCOCC3)cc(=O)[nH]2)c2ccccc21` (centres unmarked) [Example 101, 2-[2-(3-methyl-2,3-dihydro-1H-indol-1-yl)-2-oxoethyl]-6-(morpholin-4-yl)pyrimidin-4(3H)-one] it is 13 nM.
On to `O=C(Cc1nc(N2CCOCC2)cc(=O)[nH]1)N1CCc2cc(F)ccc21` [Example 103, 2-[2-(5-Fluoro-2,3-dihydroindol-1-yl)-2-oxoethyl]-6-morpholin-4-yl-3H-pyrimidin-4-one], for which the half-maximal inhibitory concentration (IC50) is 7 nM.
With `O=C(Cc1nc(N2CCOCC2)cc(=O)[nH]1)Nc1cccc2sccc12` [Example 105, N-(1-benzothiophen-4-yl)-2-[4-(morpholin-4-yl)-6-oxo-1,6-dihydropyrimidin-2-yl]acetamide] the figure was 15 nM.
With `O=C(Cc1nc(N2CCOCC2)cc(=O)[nH]1)Nc1ccccc1OCCN1CCCCC1` [Example 107, 2-[4-(morpholin-4-yl)-6-oxo-1,6-dihydropyrimidin-2-yl]-N-{2-[2-(piperidin-1-yl)ethoxy]phenyl}acetamide] the figure was 24 nM; with `COCCOc1ccccc1NC(=O)Cc1nc(N2CCOCC2)cc(=O)[nH]1` [Example 108, N-[2-(2-methoxyethoxy)phenyl]-2-[4-(morpholin-4-yl)-6-oxo-1,6-dihydropyrimidin-2-yl]acetamide], 56 nM.
With `Cn1c(CC(=O)N2CCc3c(O)cccc32)nc(N2CCOCC2)cc1=O` [Example 109, 2-[2-(4-hydroxy-2,3-dihydro-1H-indol-1-yl)-2-oxoethyl]-3-methyl-6-(morpholin-4-yl)pyrimidin-4(3H)-one] the figure was 43 nM; with `O=C(Cc1nc(N2CCOCC2)cc(=O)[nH]1)Nc1ccccc1OCCN1CCCC1` [Example 112, 2-[4-(morpholin-4-yl)-6-oxo-1,6-dihydropyrimidin-2-yl]l-N-{2-[2-(pyrrolidin-1-yl)ethoxy]phenyl}acetamide], 23 nM; with `O=C(Cc1nc(N2CCOCC2)cc(=O)[nH]1)Nc1ccccc1OCc1cccnc1` [Example 113, 2-[4-(morpholin-4-yl)-6-oxo-1,6-dihydropyrimidin-2-yl]-N-[2-(pyridin-3-ylmethoxy)phenyl]acetamide], 664 nM.
Take `C[C@H]1Cc2ccccc2N1C(=O)Cc1nc(N2CCOCC2)cc(=O)[nH]1` [Example 117, 2-{2-[(2S)-2-methyl-2,3-dihydro-1H-indol-1-yl]-2-oxoethyl}-6-(morpholin-4-yl)pyrimidin-4(3 H)-one]: half-maximal inhibition (IC50) was put at 19 nM.

Source of the values: patent US8993565B2, “(6-oxo-1,6-dihydropyrimidin-2-yl)amide derivatives, preparation thereof and pharmaceutical use thereof as AKT(PKB) phosphorylation inhibitors” (Sanofi, priority 2009, dated 2015).
